Source: patent US10131652B2, “Pyrimidinyloxy benzene derivatives as herbicides” (E. I. DU PONT DE NEMOURS AND COMPANY, priority 2014, dated 2018)
Read-outs that look alike come from different tables or passages of the source.

Legend:
Experiment in all cases: Test D pre-/postemergence plant response
Type in all cases: in vivo
[1] = system: Italian ryegrass (Lolium multiflorum); conditions: Lolium multiflorum; for pest or weed control at 16 g/ha: 16 g ai/ha; for pest or weed control at 31 g/ha: 31 g ai/ha; for pest or weed control at 62 g/ha: 62 g ai/ha; for pest or weed control at 125 g/ha: 125 g ai/ha
Procedure, shortened: (§1)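 Two application timings were run together: preemergence onto seeded loam–sand pots, and postemergence onto 1- to 4-leaf plants (2 to 18 cm) in peat/vermiculite medium with starter nutrients. Formulation was a non-phytotoxic solvent with surfactant. Ratings, 0 to 100, were made visually versus controls after 13 to 15 greenhouse days.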

[2] = system: barnyardgrass (Echinochloa crus-galli); conditions: Echinochloa crus-galli; for pest or weed control at 16 g/ha: 16 g ai/ha; for pest or weed control at 16 g/ha / pest or weed control at 31 g/ha: scale 0 to 100 (0 no effect, 100 complete control); for pest or weed control at 31 g/ha: 31 g ai/ha; for pest or weed control at 62 g/ha: 62 g ai/ha; for pest or weed control at 125 g/ha: 125 g ai/ha
Procedure, shortened: as §1

[3] = system: blackgrass (Alopecurus myosuroides); conditions: Alopecurus myosuroides; for pest or weed control at 16 g/ha: 16 g ai/ha; for pest or weed control at 31 g/ha: 31 g ai/ha; for pest or weed control at 62 g/ha: 62 g ai/ha; for pest or weed control at 125 g/ha: 125 g ai/ha
Procedure, shortened: as §1

[4] = system: corn (Zea mays); conditions: Zea mays; for Corn plant response rating (crop injury, 0 = no effect, 100 = complete kill) at 62 g/ha: 62 g ai/ha
Procedure, shortened: as §1

[5] = system: galium (catchweed bedstraw, Galium aparine); conditions: Galium; for pest or weed control at 16 g/ha: 16 g ai/ha; for pest or weed control at 31 g/ha: 31 g ai/ha; for pest or weed control at 62 g/ha: 62 g ai/ha; for pest or weed control at 125 g/ha: 125 g ai/ha
Procedure, shortened: as §1

[6] = system: giant foxtail (Setaria faberii); conditions: Setaria faberi; for pest or weed control at 16 g/ha: 16 g ai/ha; for pest or weed control at 31 g/ha: 31 g ai/ha; for pest or weed control at 62 g/ha: 62 g ai/ha; for pest or weed control at 125 g/ha: 125 g ai/ha
Procedure, shortened: as §1

[7] = system: johnsongrass (Sorghum halepense); conditions: Sorghum halepense; for pest or weed control at 16 g/ha: 16 g ai/ha; for pest or weed control at 31 g/ha: 31 g ai/ha; for pest or weed control at 62 g/ha: 62 g ai/ha; for pest or weed control at 125 g/ha: 125 g ai/ha
Procedure, shortened: as §1

[8] = system: lambsquarters (Chenopodium album); conditions: Chenopodium album; for pest or weed control at 16 g/ha: 16 g ai/ha; for pest or weed control at 31 g/ha: 31 g ai/ha; for pest or weed control at 62 g/ha: 62 g ai/ha; for pest or weed control at 125 g/ha: 125 g ai/ha
Procedure, shortened: as §1

[9] = system: large (Lg) crabgrass (Digitaria sanguinalis); conditions: Digitaria sanguinalis; for pest or weed control at 16 g/ha: 16 g ai/ha; for pest or weed control at 31 g/ha: 31 g ai/ha; for pest or weed control at 62 g/ha: 62 g ai/ha; for pest or weed control at 125 g/ha: 125 g ai/ha
Procedure, shortened: as §1

[10] = post-emergence, Postemergence, scale 0 to 100 (0 no effect, 100 complete control), read-out: Ryegrass, Italian plant response rating
[11] = post-emergence, Postemergence, scale 0 to 100, 0 no effect, 100 complete control, read-out: Plant response rating, Ryegrass, Italian
[12] = pre-emergence, Preemergence, scale 0 to 100 (0 no effect, 100 complete control), read-out: Plant response rating, Ryegrass, Italian
[13] = post-emergence, Postemergence, read-out: Barnyardgrass plant response rating
[14] = post-emergence, Postemergence, scale 0 to 100, 0 no effect, 100 complete control, read-out: Plant response rating, Barnyardgrass
[15] = pre-emergence, Preemergence, read-out: Plant response rating (scale 0 to 100), Barnyardgrass
[16] = pre-emergence, Preemergence, read-out: Plant response rating, Barnyardgrass
[17] = post-emergence, Postemergence, scale 0 to 100 (0 no effect, 100 complete control), read-out: Blackgrass plant response rating
[18] = post-emergence, Postemergence, scale 0 to 100, 0 no effect, 100 complete control, read-out: Plant response rating, Blackgrass
[19] = pre-emergence, Preemergence, scale 0 to 100 (0 no effect, 100 complete control), read-out: Plant response rating, Blackgrass
[20] = post-emergence, Postemergence, scale 0 to 100 (0 no effect, 100 complete control), read-out: Galium plant response rating
[21] = post-emergence, Postemergence, scale 0 to 100, 0 no effect, 100 complete control, read-out: Plant response rating, Galium
[22] = pre-emergence, Preemergence, scale 0 to 100 (0 no effect, 100 complete control), read-out: Plant response rating, Galium
[23] = post-emergence, Postemergence, scale 0 to 100 (0 no effect, 100 complete control), read-out: Foxtail, Giant plant response rating
[24] = post-emergence, Postemergence, scale 0 to 100, 0 no effect, 100 complete control, read-out: Plant response rating, Foxtail, Giant
[25] = pre-emergence, Preemergence, scale 0 to 100 (0 no effect, 100 complete control), read-out: Plant response rating, Foxtail, Giant
[26] = post-emergence, Postemergence, scale 0 to 100 (0 no effect, 100 complete control), read-out: Johnsongrass plant response rating
[27] = post-emergence, Postemergence, scale 0 to 100, 0 no effect, 100 complete control, read-out: Plant response rating, Johnsongrass
[28] = pre-emergence, Preemergence, scale 0 to 100 (0 no effect, 100 complete control), read-out: Plant response rating, Johnsongrass
[29] = post-emergence, Postemergence, scale 0 to 100 (0 no effect, 100 complete control), read-out: Lambsquarters plant response rating
[30] = post-emergence, Postemergence, scale 0 to 100, 0 no effect, 100 complete control, read-out: Plant response rating, Lambsquarters
[31] = pre-emergence, Preemergence, scale 0 to 100 (0 no effect, 100 complete control), read-out: Plant response rating, Lambsquarters
[32] = post-emergence, Postemergence, scale 0 to 100 (0 no effect, 100 complete control), read-out: Crabgrass, Large plant response rating
[33] = post-emergence, Postemergence, scale 0 to 100, 0 no effect, 100 complete control, read-out: Plant response rating, Crabgrass, Large
[34] = pre-emergence, Preemergence, scale 0 to 100 (0 no effect, 100 complete control), read-out: Plant response rating, Crabgrass, Large

Fc1cccc(Oc2ncc(Cl)cn2)c1-c1cc(C(F)F)on1 [Compound 55, 5-chloro-2-[2-[5-(difluoromethyl)-3-isoxazolyl]-3-fluorophenoxy]pyrimidine]
90%: pest or weed control at 125 g/ha ([3]; pre-emergence, Preemergence, read-out: Plant response rating (scale 0 to 100), Blackgrass) | pest or weed control at 31 g/ha [3, 19] | pest or weed control at 62 g/ha [3, 19] | pest or weed control at 31 g/ha [5, 20] | pest or weed control at 62 g/ha [5, 21] | pest or weed control at 125 g/ha [5, 21]
15%: pest or weed control at 125 g/ha [1, 11] | pest or weed control at 16 g/ha [1, 12] | pest or weed control at 62 g/ha [2, 14] | pest or weed control at 125 g/ha [2, 14] | pest or weed control at 16 g/ha [3, 19] | pest or weed control at 125 g/ha [7, 27] | pest or weed control at 125 g/ha [9, 33]
0%: pest or weed control at 16 g/ha [1, 10]
5%: pest or weed control at 31 g/ha [1, 10] | pest or weed control at 16 g/ha [2, 13] | pest or weed control at 16 g/ha [3, 17] | Corn plant response rating (crop injury, 0 = no effect, 100 = complete kill) at 16 g/ha ([4]; pre-emergence, Preemergence, 16 g ai/ha, scale 0 to 100 (0 no effect, 100 complete control)) | pest or weed control at 16 g/ha [7, 26] | pest or weed control at 31 g/ha [7, 26] | pest or weed control at 16 g/ha [9, 32]
75%: pest or weed control at 125 g/ha [6, 24] | pest or weed control at 31 g/ha [7, 28] | pest or weed control at 16 g/ha [8, 29]
85%: pest or weed control at 62 g/ha [1, 12] | pest or weed control at 31 g/ha [2, 16] | pest or weed control at 62 g/ha [7, 28] | pest or weed control at 31 g/ha [8, 29]
25%: pest or weed control at 16 g/ha [2, 16]
30%: pest or weed control at 62 g/ha [3, 18] | pest or weed control at 16 g/ha [7, 28]
98%: pest or weed control at 62 g/ha [8, 30] | pest or weed control at 125 g/ha [8, 30] | pest or weed control at 125 g/ha ([8]; pre-emergence, Preemergence, read-out: Plant response rating (scale 0 to 100), Lambsquarters)
35%: pest or weed control at 31 g/ha [1, 12] | Corn plant response rating (crop injury, 0 = no effect, 100 = complete kill) at 62 g/ha ([4]; pre-emergence, Preemergence, scale 0 to 100 (0 no effect, 100 complete control))
100%: pest or weed control at 62 g/ha [2, 15] | pest or weed control at 125 g/ha [2, 15] | pest or weed control at 125 g/ha ([5]; pre-emergence, Preemergence, read-out: Plant response rating (scale 0 to 100), Galium) | pest or weed control at 16 g/ha [5, 22] | pest or weed control at 31 g/ha [5, 22] | pest or weed control at 62 g/ha [5, 22] | pest or weed control at 125 g/ha ([6]; pre-emergence, Preemergence, read-out: Plant response rating (scale 0 to 100), Foxtail, Giant) | pest or weed control at 16 g/ha [6, 25] | pest or weed control at 31 g/ha [6, 25] | pest or weed control at 62 g/ha [6, 25] | pest or weed control at 125 g/ha ([7]; pre-emergence, Preemergence, read-out: Plant response rating (scale 0 to 100), Johnsongrass) | pest or weed control at 16 g/ha [8, 31] | pest or weed control at 31 g/ha [8, 31] | pest or weed control at 62 g/ha [8, 31] | pest or weed control at 125 g/ha ([9]; pre-emergence, Preemergence, read-out: Plant response rating (scale 0 to 100), Crabgrass, Large) | pest or weed control at 16 g/ha [9, 34] | pest or weed control at 31 g/ha [9, 34] | pest or weed control at 62 g/ha [9, 34]
50%: pest or weed control at 125 g/ha [3, 18] | pest or weed control at 31 g/ha [6, 23]
95%: pest or weed control at 125 g/ha ([1]; pre-emergence, Preemergence, read-out: Plant response rating (scale 0 to 100), Ryegrass, Italian)
80%: plant injury at 125 g/ha ([4]; pre-emergence, Preemergence, 125 g ai/ha, read-out: Plant response rating (scale 0 to 100), Corn) | pest or weed control at 16 g/ha [5, 20]
10%: pest or weed control at 62 g/ha [1, 11] | pest or weed control at 31 g/ha [2, 13] | pest or weed control at 31 g/ha [3, 17] | plant injury at 16 g/ha ([4]; post-emergence, Postemergence, 16 g ai/ha, scale 0 to 100 (0 no effect, 100 complete control), read-out: Corn plant response rating) | plant injury at 31 g/ha ([4]; post-emergence, Postemergence, 31 g ai/ha, scale 0 to 100 (0 no effect, 100 complete control), read-out: Corn plant response rating) | Corn plant response rating (crop injury, 0 = no effect, 100 = complete kill) at 62 g/ha ([4]; post-emergence, Postemergence, scale 0 to 100, 0 no effect, 100 complete control) | pest or weed control at 62 g/ha [7, 27] | pest or weed control at 31 g/ha [9, 32] | pest or weed control at 62 g/ha [9, 33]
40%: pest or weed control at 16 g/ha [6, 23] | pest or weed control at 62 g/ha [6, 24]
20%: Corn plant response rating (crop injury, 0 = no effect, 100 = complete kill) at 125 g/ha ([4]; post-emergence, Postemergence, 125 g ai/ha, scale 0 to 100, 0 no effect, 100 complete control) | Corn plant response rating (crop injury, 0 = no effect, 100 = complete kill) at 31 g/ha ([4]; pre-emergence, Preemergence, 31 g ai/ha, scale 0 to 100 (0 no effect, 100 complete control))
